Experimental data published in publication PMC12040169 (PLOS Biology, 2025).
Peptide text beside a SMILES is read from it. * marks the point of attachment. Hydrocinnamoyl = O=C(CCc1ccccc1)*

Assay: in vitro
Conditions: human, hela cells, % viability

Going from `COCCNC(=O)c1c(NC(=O)c2ccccc2C)sc2c1CCCC2` [CBK091645] to `CCOC(=O)c1c(NC(=O)Cn2cnc3ccccc32)sc2c1CCCC2` [CBK260917], the viability at 28.5 h, 10 µM rises from 83.9% to 106%.

Compared with `O=C(NC(c1ccccc1)c1ccccn1)C1CCN(C(=O)Oc2ccccc2)CC1` (centres unmarked) [CBK060105], `CCC(C(=O)N1CCC(C(=O)c2cccnc2)CC1)c1ccccc1` (centres unmarked) [CBK283525] is lower in viability at 28.5 h, 10 µM: 96.9% for the first, 91.1% for the second.

Going from `COc1ccc(N2CCN(Cc3nc4c(c(=O)n(C)c(=O)n4C)n3Cc3cccc(C)c3)CC2)cc1` [CBK269552] to `O=C(CCN1C(=O)c2cccc3cccc(c23)C1=O)N1CCN(Cc2ccc3c(c2)OCO3)CC1` [CBK074420], the viability at 28.5 h, 10 µM rises from 78.4% to 96.2%.

First: CN(C)C(=O)c1ccc(-c2cnc3[nH]c(=O)n(CCCN4CCOCC4)c3n2)cc1 [CBK064828]
Second: O=c1[nH]c2ncc(-c3cccc(-c4ccccc4)c3)nc2n1Cc1ccccc1 [CBK064252]
The viability at 28.5 h, 10 µM of the first is higher: 108% for the first, 96.1% for the second.

First: COc1ccccc1-c1ccccc1CN(C)Cc1ccccc1N1CCOCC1 [CBK286000]
Second: OCCN1CC2(CCN(CCc3cccc4ccccc34)CC2)c2ccccc21 [CBK137013]
The viability at 28.5 h, 10 µM of the first is lower: 88.7% for the first, 106% for the second.

First: CC1CN(Cc2nc3c(c(=O)[nH]c(=O)n3C)n2CCc2ccccc2)CC(C)O1 (centres unmarked) [CBK269876]
Second: Cc1nn2c(=O)c(CCC(=O)O)c(C)[nH]c2c1-c1ccccc1 [CBK287011]
The viability at 28.5 h, 10 µM of the first is higher: 98.1% for the first, 92.4% for the second.

Compared with `COc1cc2c(cc1NC(=O)c1ccc(C)c([N+](=O)[O-])c1)oc1ccccc12` [CBK263411], `Cc1cc(NC(=O)c2ccc3c(c2)OCO3)nc2c1c(=O)oc1ccccc12` [CBK291121] is higher in viability at 28.5 h, 10 µM: 91.9% for the first, 117% for the second.

First: O=C(O)c1cc(S(=O)(=O)N2CCOCC2)c(Cl)cc1NC1CCCCC1 [CBK264576]
Second: CC1=C[C@@H](CNC(=O)NC2CCCCC2)[C@H](C(C)C)C[C@H]1CC(=O)O [CBK289211]
The viability at 28.5 h, 10 µM of the first is higher: 97.8% for the first, 80.3% for the second.

First: O=C(O)C1C2C=CC(C2)C1C(=O)N1CCN(Cc2ccccc2Cl)CC1 (centres unmarked) [CBK270334]
Second: O=S(=O)(c1ccc(F)c(Cl)c1)N1CCCN(Cc2ccccc2)CC1 [CBK045211]
The viability at 28.5 h, 10 µM of the first is lower: 93% for the first, 101% for the second.

Compared with `O=C(c1cncnc1)N1CCc2ccccc21` [CBK200272], `CN1CCN(C(=O)c2ccc3nc(-c4ccccc4)c(-c4ccccc4)nc3c2)CC1` [CBK267257] is lower in viability at 28.5 h, 10 µM: 102% for the first, 98.7% for the second.

First: CC1(C)[C@H](Cc2cc(CO)on2)C[C@@H]1N(Cc1ccncc1)Cc1ccncc1 [CBK289233]
Second: CN(Cc1ccccc1)C1CCN(Cc2ccccn2)CC1 [CBK264622G]
The viability at 28.5 h, 10 µM of the first is lower: 98.2% for the first, 107% for the second.

First: O=C(O)c1ccc(NS(=O)(=O)Cc2ccccc2[N+](=O)[O-])cc1 [CBK034054]
Second: Cc1c(Cl)cccc1S(=O)(=O)Nc1ccc(C(=O)O)cc1 [CBK034050]
The viability at 28.5 h, 10 µM of the first is higher: 90.4% for the first, 86.4% for the second.

Compared with `O=C(c1ccc2occc2c1)N1CCCC2(CCN(C(=O)c3cc(F)c(F)cc3F)C2)C1` (centres unmarked) [CBK137071], `COc1cc(CN2CCCC3(CCN(C(=O)c4cc(F)c(F)cc4F)C3)C2)cc(OC)c1OC` (centres unmarked) [CBK131988] is higher in viability at 28.5 h, 10 µM: 90.1% for the first, 101% for the second.

First: Cc1cc(C)nc(N2CCN(CCC(=O)O)CC2)n1 [CBK287272]
Second: COc1ccc(C(NC(=O)CC2CCN(c3nc(C)cc(C)n3)CC2)C2CC2)cc1 (centres unmarked) [CBK285994]
The viability at 28.5 h, 10 µM of the first is higher: 97% for the first, 93.4% for the second.

First: COc1ncc(-c2nccnc2NCC(C)O)c(OC)n1 (centres unmarked) [CBK036970]
Second: Cc1nc(C)n(CCCNc2cc(C(C)C)nc3ccnn23)n1 [CBK307497]
The viability at 28.5 h, 10 µM of the first is higher: 105% for the first, 79.7% for the second.

Compared with `CC(=O)Nc1ccc(S(=O)(=O)NCCSc2ccccn2)cc1` [CBK263576], `COC(=O)CCCNS(=O)(=O)c1ccc([N+](=O)[O-])cc1` [CBK261172] is higher in viability at 28.5 h, 10 µM: 90.1% for the first, 109% for the second.

Going from `CC(C)(C)c1csc(Nc2ncc(C(F)(F)F)cc2Cl)n1` [CBK021513] to `O=C(Nc1cccc(C(F)(F)F)c1)c1cnsn1` [CBK018923], the viability at 28.5 h, 10 µM rises from 77.5% to 88.9%.

Going from `Cc1n[nH]c(C)c1CCC(=O)N/N=C/c1ccc(O)cc1` [CBK262927] to `Cc1n[nH]c(C)c1CCCCCOc1ccccc1F` [CBK025736C], the viability at 28.5 h, 10 µM falls from 109% to 88.9%.

First: O=C(O)CNC(=O)CNC(=O)CCc1ccccc1 [CBK286874] (Hydrocinnamoyl-Gly-Gly-OH)
Second: O=C(O)C1C2C=CC3(CN(c4ccccc4)C(=O)C13)O2 (centres unmarked) [CBK286992]
The viability at 28.5 h, 10 µM of the first is lower: 87.1% for the first, 87.4% for the second.

Going from `CN1C(=O)C(CCNc2ccccc2)S/C1=N/C1CC2C=CC1C2` (centres unmarked) [CBK073812] to `C[C@H](NC(=O)OC1CC[C@@]2(c3ccccc3)CCN(C)[C@H]2C1)c1cccc2ccccc12` (some centres unmarked) [CBK003664], the viability at 28.5 h, 10 µM falls from 114% to 111%.

Compared with `Cc1ccn(-c2ccc(N3CCC4(CC3)OCCO4)nn2)n1` [CBK305263], `Cc1nc(CN2CCN(c3ccc4nnnn4n3)CC2)cs1` [CBK306056] is lower in viability at 28.5 h, 10 µM: 91.5% for the first, 79.3% for the second.

Compared with `Cc1csc(NC(=O)CSc2ccc3nnc(-c4ccccc4)n3n2)n1` [CBK287517], `Cc1cc(O)nc(SCCCSc2ccccc2)n1` [CBK267415] is higher in viability at 28.5 h, 10 µM: 105% for the first, 114% for the second.

`C[C@H]1[C@@H]2[C@H]3OC(=O)[C@@H](C)[C@@H]3CC[C@@]2(C)CC[C@@H]1NC(=O)c1ccccn1` [CBK289452] and `Cc1ncsc1C(=O)N1CCC2(C/C=C/C[C@H]3COCC[C@H]3NC(=O)[C@@H](CC(C)C)NC2=O)CC1` [CBK292187] are the same in viability at 28.5 h, 10 µM: 107% for the first, 107% for the second.

Compared with `N#CCCCN1CCC(Oc2nccnc2OCc2ccccc2C(F)(F)F)CC1` [CBK153636], `COc1nccnc1OC1CCN(Cc2ccc([N+](=O)[O-])cc2)CC1` [CBK084245] is higher in viability at 28.5 h, 10 µM: 102% for the first, 105% for the second.

First: N#Cc1c(N)nc2c(c1-c1cccnc1)CCCC2 [CBK287885]
Second: Cc1ccc(OCC(=O)Nc2sc3c(c2C(N)=O)CCCCC3)c([N+](=O)[O-])c1 [CBK268148]
The viability at 28.5 h, 10 µM of the first is lower: 85.8% for the first, 101% for the second.

Compared with `COc1cccc(C(=O)N2CCC(Cc3ccc(-c4ccccc4)cc3)(C(N)=O)CC2)c1` [CBK285770], `CNC(=O)C1(Cc2cccc(-c3cccs3)c2)CCN(C(=O)COc2ccccc2)CC1` [CBK285732] is lower in viability at 28.5 h, 10 µM: 103% for the first, 95.5% for the second.

Going from `O=c1c2cc(F)ccc2nc2n1CCN(Cc1ccsc1)CC2` [CBK284860] to `COc1cccc(CN2CCN(C(=O)c3cccc(F)c3)CC2)c1OC` [CBK074527], the viability at 28.5 h, 10 µM falls from 106% to 85.1%.

Compared with `CN(C)S(=O)(=O)Nc1ccccc1C(N)=O` [CBK264382], `O=C(O)c1csc(S(=O)(=O)Nc2ccccc2C(=O)Nc2ccc3c(c2)OCO3)c1` [CBK295655] is lower in viability at 28.5 h, 10 µM: 111% for the first, 102% for the second.

Going from `CC(=O)Nc1ccc(N2CCN(CCO)CC2)cc1OCCCOc1ccccc1` [CBK074317T] to `COc1cc(CN2CCN(C/C=C/c3ccccc3)CC2)cc(I)c1O` [CBK261882], the viability at 28.5 h, 10 µM falls from 110% to 91.7%.

First: Cc1cc(Br)ccc1-n1sc2ccccc2c1=O [CBK116239]
Second: O=C1CC(c2ccccc2)c2c(c3ccccc3[nH]c2=O)O1 (centres unmarked) [CBK288237]
The viability at 28.5 h, 10 µM of the first is lower: 87% for the first, 112% for the second.

Compared with `Cc1nn(C(C)CC(=O)NCc2ccco2)c(C)c1Br` (centres unmarked) [CBK269797], `CC(C)COC(=O)N1CCC(N(C)Cc2ccc(-c3ccc(S(C)(=O)=O)cc3)nc2)CC1` [CBK165259T] is higher in viability at 28.5 h, 10 µM: 89.5% for the first, 90.4% for the second.

Going from `COc1cc(CN2CCN(S(=O)(=O)c3ccc(Cl)cc3)CC2)cc(OC)c1OC` [CBK074499] to `Cc1cc(OCC(O)CN2CCN(Cc3ccc4c(c3)OCO4)CC2)cc(C)c1Cl` (centres unmarked) [CBK074374], the viability at 28.5 h, 10 µM rises from 91.3% to 93.4%.

`O=C(O)c1cccc(S(=O)(=O)Nc2nc3c(Cl)cccc3s2)c1` [CBK161135] and `Cc1c(S(=O)(=O)Nc2ccc(C(=O)c3ccccc3)cc2)cnn1-c1ccccc1` [CBK051034] are the same in viability at 28.5 h, 10 µM: 96.5% for the first, 96.5% for the second.

Going from `CCN(CC)C(=O)c1sc2ncccc2c1NS(=O)(=O)Cc1ccccc1[N+](=O)[O-]` [CBK050022] to `COc1ccc(C(C)C)cc1-c1nc(N)cc2cccnc12` [CBK081178], the viability at 28.5 h, 10 µM rises from 92.1% to 99.6%.

Compared with `Cn1cc(-c2nc(C3COCCN3Cc3ccc(F)cc3)no2)cn1` (centres unmarked) [CBK305391], `CC(=O)Nc1ccc(C(=O)N2CCCC2c2cccc(Cc3ccc(Cl)cc3)n2)cc1` (centres unmarked) [CBK286144] is higher in viability at 28.5 h, 10 µM: 97.7% for the first, 110% for the second.

Going from `C=CCc1cc(C)cc(C)c1OCCN1CCN(CC)CC1` [CBK267392G] to `Cc1ccc(C(C)(C)C(=O)N2CCC(CC(=O)N(C)C)CC2)cc1` [CBK281973], the viability at 28.5 h, 10 µM rises from 93.7% to 99.8%.

Compared with `Cc1nc(COc2ccccc2Cl)sc1-c1ccnc(N)n1` [CBK057769], `COc1ccc(-c2cc(C(=O)Nc3nccs3)cnc2-c2ccc(Cl)cc2)cc1` [CBK037553] is lower in viability at 28.5 h, 10 µM: 91.3% for the first, 87.4% for the second.

Going from `NC(=S)c1ccc2c(c1)OCO2` [CBK022803] to `O=C(Nc1nccc(N2CCNCC2)n1)c1cccs1` [CBK004305T], the viability at 28.5 h, 10 µM falls from 86.3% to 77.7%.

First: CC1CCc2c(sc(NC(=O)c3nc4ncccn4n3)c2C(N)=O)C1 (centres unmarked) [CBK267631]
Second: COc1ccc(C(C)C)cc1-c1cn2ccnc2c(NC2CCOCC2)n1 [CBK066320]
The viability at 28.5 h, 10 µM of the first is higher: 96.3% for the first, 94% for the second.

First: CS(=O)(=O)N(Cc1ccccc1)c1ccc(C(=O)Nc2ccc(-c3ccccc3)cc2)cc1 [CBK262754]
Second: CCN(CCO)c1ccc(Nc2cc(-c3ccc(C#N)cc3)ncn2)cc1 [CBK037764]
The viability at 28.5 h, 10 µM of the first is higher: 90.6% for the first, 87.9% for the second.

First: CCCCC(C(=O)O)N1C(=O)C2CC=C(Cl)CC2C1=O (centres unmarked) [CBK286536]
Second: CCc1cc(C(=O)OC)c(NC(=O)C2C3C=CC(C3)C2C(=O)O)s1 (centres unmarked) [CBK270315]
The viability at 28.5 h, 10 µM of the first is lower: 91.4% for the first, 94.9% for the second.

First: O=c1c(Oc2ccccc2Br)c(C(F)(F)F)oc2c(CN3CCCC3)c(O)ccc12 [CBK217827]
Second: C/C(=C\C(=O)NC1CC(C)(C)NC(C)(C)C1)NC1CC(C)(C)NC(C)(C)C1 [CBK261982]
The viability at 28.5 h, 10 µM of the first is lower: 96% for the first, 113% for the second.

Same assay, conditions: human, hela cells, % viability, bulk resorufin, single well

Compared with `Cc1ccccc1N1C(=O)NC(=O)C(CCc2ccncc2)(Cc2ccc3c(c2)OCO3)C1=O` (centres unmarked) [CBK266289], `CC(=O)C1(c2ccccc2)CCN(C(=O)CNS(=O)(=O)c2ccc(C)cc2)CC1` [CBK091328] is higher in viability at 28.5 h, 10 µM: 92% for the first, 92.5% for the second.
